Source: US9238619B2, “Phenalkylamine derivatives, pharmaceutical compositions containing them, and their use in therapy” (AbbVie Deutschland GmbH & Co. KG, priority 2010, dated 2016)
Structures can show the parent of a compound that is named as a salt.

target: human GlyT1c transporter (Homo sapiens (Human), UniProt P48067); assay: Radioligand binding assays using recombinant CHO cell membranes expressing human GlyT1; conditions: read-out: radioligand binding Kiapp
Experimental: Radioligand binding to human GlyT1c transporter-expressing membranes was determined as described in Mezler et al., Molecular Pharmacology 74:1705-1715, 2008.

human GlyT1c transporter, sequence (P48067 whole entry): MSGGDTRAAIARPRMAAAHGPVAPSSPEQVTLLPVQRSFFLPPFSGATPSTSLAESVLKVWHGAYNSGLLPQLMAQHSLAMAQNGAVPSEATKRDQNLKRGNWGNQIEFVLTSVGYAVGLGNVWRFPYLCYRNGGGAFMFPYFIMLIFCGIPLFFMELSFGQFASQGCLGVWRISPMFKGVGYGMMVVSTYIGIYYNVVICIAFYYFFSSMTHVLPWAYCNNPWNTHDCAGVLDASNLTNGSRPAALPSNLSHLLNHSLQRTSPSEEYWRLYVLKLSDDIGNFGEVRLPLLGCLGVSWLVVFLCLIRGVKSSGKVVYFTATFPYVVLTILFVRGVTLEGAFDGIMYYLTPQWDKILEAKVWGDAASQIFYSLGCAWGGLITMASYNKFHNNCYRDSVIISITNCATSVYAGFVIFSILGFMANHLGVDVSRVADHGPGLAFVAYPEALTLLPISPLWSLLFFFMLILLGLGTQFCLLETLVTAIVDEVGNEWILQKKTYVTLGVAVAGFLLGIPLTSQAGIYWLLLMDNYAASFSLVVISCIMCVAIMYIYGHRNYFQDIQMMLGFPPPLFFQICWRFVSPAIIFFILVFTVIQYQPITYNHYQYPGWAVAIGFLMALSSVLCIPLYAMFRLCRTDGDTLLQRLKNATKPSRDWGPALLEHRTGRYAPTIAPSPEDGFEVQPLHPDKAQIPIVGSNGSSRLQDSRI

Ki	Compound
≤ 1000 nM	O=S(=O)(CC1CC1)NCCOc1cccc(C2(Cc3ccccc3)CNC2)c1 [Example 49, N-{2-[3-(3-Benzyl-azetidin-3-yl)-phenoxy]-ethyl}-C-cyclopropyl-methane sulfonamide]
≤ 1000 nM	Cn1cc(S(=O)(=O)NCCOc2cccc(C(Cc3ccccc3)CN3CCC3)c2)cn1 (stereo not shown) [Example 36]
≤ 10000 nM	Cn1cnc(S(=O)(=O)NCc2cccc(C(Cc3ccccc3)CN3CCOCC3)c2)c1 (stereo not shown) [Example 20, 1-Methyl-1H-imidazole-4-sulfonic acid 3-(1-benzyl-2-morpholin-4-yl-ethyl)benzylamide]
≤ 100 nM	Cn1cnc(S(=O)(=O)NCCOc2cccc(C3(Cc4ccccc4)CNC3)c2)c1 [Example 51, 1-Methyl-1H-imidazole-4-sulfonic acid {2-[3-(3-benzyl-azetidin-3-yl)phenoxy]-ethyl}-amide]
≤ 100 nM	Cn1cc(S(=O)(=O)NCCOc2cc(C(CN)Cc3ccccc3)ccc2F)cn1 (stereo not shown) [Example 3, 1-Methyl-1H-pyrazole-4-sulfonic acid {2-[5-(2-amino-1-benzyl-ethyl)-2-fluoro-phenoxy]-ethyl}-amide, hydrochloride]
≤ 100 nM	CN(C)CC(Cc1cccc(C(F)(F)F)c1)c1cccc(OCCNS(=O)(=O)c2cn(C)cn2)c1 (stereo not shown) [Example 29, 1-Methyl-1H-imidazole-4-sulfonic acid (2-{3-[2-dimethylamino-1-(3-trifluoromethyl-benzyl)-ethyl]-phenoxy}-ethyl)-amide]
≤ 100 nM	COCCN1CC(Cc2ccccc2)(c2cccc(OCCNS(=O)(=O)c3cn(C)cn3)c2)C1 [Example 73, 1-Methyl-1H-imidazole-4-sulfonic acid (2-{3-[3-benzyl-1-(2-methoxy-ethyl)azetidin-3-yl]-phenoxy}-ethyl)-amide]
≤ 100 nM	Cn1cc(S(=O)(=O)NCCOc2cccc(C3(Cc4ccccc4)CNC3)c2)cn1 [Example 50, 1-Methyl-1H-pyrazole-4-sulfonic acid {2-[3-(3-benzyl-azetidin-3-yl)-phenoxy]-ethyl}-amide]
≤ 1000 nM	Cn1cc(S(=O)(=O)NCCOc2cccc(C(CN)Cc3ccc(Cl)cc3)c2)cn1 (stereo not shown) [Example 8, 1-Methyl-1H-pyrazole-4-sulfonic acid (2-{3-[2-amino-1-(4-chloro-benzyl)ethyl]-phenoxy}-ethyl)-amide, hydrochloride]
≤ 100 nM	Cn1cc(S(=O)(=O)NCCOc2cccc(C(CN)Cc3cccc(C(F)(F)F)c3)c2)cn1 (stereo not shown) [Example 10, 1-Methyl-1H-pyrazole-4-sulfonic acid (2-{3-[2-amino-1-(3-trifluoromethylbenzyl)-ethyl]-phenoxy}-ethyl)-amide, hydrochloride]
≤ 1000 nM	Cn1cc(S(=O)(=O)NCCOc2cccc(C(CN)Cc3cc(F)cc(F)c3)c2)cn1 (stereo not shown) [Example 7, 1-Methyl-1H-pyrazole-4-sulfonic acid (2-{3-[2-amino-1-(3,5-difluoro-benzyl)ethyl]-phenoxy}-ethyl)-amide, hydrochloride]
≤ 10000 nM	CN(Cc1cccc(C(CN)C2(c3ccc(Cl)cc3)CCC2)c1)S(=O)(=O)c1cnn(C)c1 (stereo not shown) [Example 45, N-(3-{2-Amino-1-[1-(4-chlorophenyl)cyclobutyl]ethyl}benzyl)-N,1-dimethyl-1H-pyrazole-4-sulfonamide hydrochloride]
≤ 10000 nM	Cn1cnc(S(=O)(=O)NCc2cccc(C(Cc3ccccc3)C(=O)N3CCOCC3)c2)c1 (stereo not shown) [Example 17, 1-Methyl-1H-imidazole-4-sulfonic acid 3-(1-benzyl-2-morpholin-4-yl-2-oxo-ethyl)-benzylamide]
≤ 10000 nM	CCCS(=O)(=O)N(C)Cc1cccc(C(CNC(=O)OC(C)(C)C)C2(c3ccc(Cl)cc3)CCC2)c1 (stereo not shown) [Example 40, tert-Butyl {2-[1-(4-chlorophenyl)cyclobutyl]-2-(3-{[methyl(propylsulfonyl)amino]methyl}phenyl)ethyl}carbamate]
≤ 1000 nM	Cn1cnc(S(=O)(=O)NCCOc2cccc(C(CN)Cc3cc(F)cc(F)c3)c2)c1 (stereo not shown) [Example 11, 1-Methyl-1H-imidazole-4-sulfonic acid (2-{3-[2-amino-1-(3,5-difluoro-benzyl)ethyl]-phenoxy}-ethyl)-amide, hydrochloride]
≤ 1000 nM	Cn1cnc(S(=O)(=O)NCCOc2cccc(C3(Cc4ccccc4)CNC(=O)C3)c2)c1 (stereo not shown) [Example 56, 1-Methyl-1H-imidazole-4-sulfonic acid {2-[3-(3-benzyl-5-oxo-pyrrolidin-3-yl)-phenoxy]-ethyl}-amide]

Ki	Compound
≤ 1000 nM	Cn1cc(S(=O)(=O)NCc2cccc(C(Cc3ccccc3)CN3CCOCC3)c2)cn1 (stereo not shown) [Example 21, 1-Methyl-1H-pyrazole-4-sulfonic acid 3-(1-benzyl-2-morpholin-4-yl-ethyl)benzylamide]
≤ 100 nM	CN(C)CC(Cc1ccccc1)c1cc(OCCNS(=O)(=O)c2cnn(C)c2)ccc1Cl (stereo not shown) [Example 30, 1-Methyl-1H-pyrazole-4-sulfonic acid {2-[3-(1-benzyl-2-dimethylamino-ethyl)-4-chloro-phenoxy]-ethyl}-amide, hydrochloride]
≤ 1000 nM	CN1CCC(Cc2ccccc2)(c2cccc(CNS(=O)(=O)c3cnn(C)c3)c2)C1 (stereo not shown) [Example 69, 1-Methyl-1H-pyrazole-4-sulfonic acid 3-(3-benzyl-1-methyl-pyrrolidin-3-yl)-benzylamide]
≤ 10000 nM	Cn1cc(S(=O)(=O)NCc2cccc(C3(Cc4ccccc4)CNC(=O)C3)c2)cn1 (stereo not shown) [Example 66, 1-Methyl-1H-pyrazole-4-sulfonic acid 3-(3-benzyl-5-oxo-pyrrolidin-3-yl)benzylamide]
≤ 100 nM	Cn1cnc(S(=O)(=O)NCCOc2cc(C(CN)Cc3ccccc3)ccc2F)c1 (stereo not shown) [Example 4, 1-Methyl-1H-imidazole-4-sulfonic acid {2-[5-(2-amino-1-benzyl-ethyl)-2-fluoro-phenoxy]-ethyl}-amide, hydrochloride]
≤ 100 nM	CN(C)CC(Cc1cccc(C(F)(F)F)c1)c1cccc(OCCNS(=O)(=O)c2cnn(C)c2)c1 (stereo not shown) [Example 28, 1-Methyl-1H-pyrazole-4-sulfonic acid (2-{3-[2-dimethylamino-1-(3-trifluoromethyl-benzyl)-ethyl]-phenoxy}-ethyl)-amide]
≤ 100 nM	Cn1cc(S(=O)(=O)NCc2cccc(C3(Cc4ccccc4)CCNC3)c2)cn1 (stereo not shown) [Example 67, 1-Methyl-1H-pyrazole-4-sulfonic acid 3-(3-benzyl-pyrrolidin-3-yl)benzylamide]
≤ 1000 nM	O=S(=O)(CC1CC1)NCc1cccc(C2(Cc3ccccc3)CCNC2)c1 (stereo not shown) [Example 68, N-[3-(3-Benzyl-pyrrolidin-3-yl)-benzyl]-C-cyclopropyl-methanesulfonamide]
≤ 1000 nM	CN1CC(Cc2ccccc2)(c2ccc(F)c(OCCN(C)S(=O)(=O)c3cn(C)cn3)c2)C1 [Example 53, 1-Methyl-1H-imidazole-4-sulfonic acid {2-[5-(3-benzyl-1-methyl-azetidin-3-yl)-2-fluoro-phenoxy]-ethyl}-methyl-amide]
≤ 1000 nM	Cn1cnc(S(=O)(=O)NCc2cccc(C(CN)Cc3ccccc3)c2)c1 (stereo not shown) [Example 19, 1-Methyl-1H-imidazole-4-sulfonic acid 3-(2-amino-1-benzyl-ethyl)benzylamide, hydrochloride]
≤ 1000 nM	Cn1cnc(S(=O)(=O)NCCOc2ccc(F)c(C(CN)Cc3ccccc3)c2)c1 (stereo not shown) [Example 1, 1-Methyl-1H-imidazole-4-sulfonic acid {2-[3-(2-amino-1-benzyl-ethyl)-4-fluoro-phenoxy]-ethyl}-amide hydrochloride]
≤ 1000 nM	Cn1cc(S(=O)(=O)NCCOc2cccc(C3(Cc4ccccc4)CNC(=O)C3)c2)cn1 (stereo not shown) [Example 58, 1-Methyl-1H-pyrazole-4-sulfonic acid {2-[3-(3-benzyl-5-oxo-pyrrolidin-3-yl)phenoxy]-ethyl}-amide]
≤ 100 nM	CN(C)CC(Cc1ccccc1)c1cccc(OCCNS(=O)(=O)c2cnn(C)c2)c1 (stereo not shown) [Example 24, 1-Methyl-1H-pyrazole-4-sulfonic acid {2-[3-(1-benzyl-2-dimethylamino-ethyl)phenoxy]-ethyl}-amide]
≤ 1000 nM	CN(C)CC(Cc1ccccc1)c1cccc(OCCNS(=O)(=O)c2cn(C)cn2)c1 (stereo not shown) [Example 25, 1-Methyl-1H-imidazole-4-sulfonic acid {2-[3-(1-benzyl-2-dimethylaminoethyl)-phenoxy]-ethyl}-amide]
≤ 10000 nM	Cn1cc(S(=O)(=O)NCc2cccc(C(Cc3ccccc3)C(N)=O)c2)cn1 (stereo not shown) [Example 15, 2-{3-[(1-Methyl-1H-pyrazole-4-sulfonylamino)-methyl]-phenyl}-3-phenyl-propionamide]
≤ 100 nM	Cn1cc(S(=O)(=O)NCCOc2cccc(C(CN)Cc3ccccc3)c2)cn1 (stereo not shown) [Example 6, 1-Methyl-1H-pyrazole-4-sulfonic acid {2-[3-(2-amino-1-benzyl-ethyl)-phenoxy]-ethyl}-amide, hydrochloride]

Compound	Ki
Cn1cnc(S(=O)(=O)NCCOc2cccc(C3(Cc4ccccc4)CCN(CC(C)(C)C)C3)c2)c1 (stereo not shown) [Example 76, 1-Methyl-1H-imidazole-4-sulfonic acid (2-{3-[3-benzyl-1-(2,2-dimethylpropyl)-pyrrolidin-3-yl]-phenoxy}-ethyl)-amide]	≤ 100 nM
Cn1cnc(S(=O)(=O)NCCOc2cccc(C3(Cc4ccccc4)CCNC3)c2)c1 (stereo not shown) [Example 61, 1-Methyl-1H-imidazole-4-sulfonic acid {2-[3-(3-benzyl-pyrrolidin-3-yl)phenoxy]-ethyl}-amide]	≤ 100 nM
CCCS(=O)(=O)N(C)Cc1cccc(C(CN)C2(c3ccc(Cl)cc3)CCC2)c1 (stereo not shown) [Example 42, N-(3-{2-Amino-1-[1-(4-chlorophenyl)cyclobutyl]ethyl}benzyl)-N-methylpropane-1-sulfonamide hydrochloride]	≤ 10000 nM
Cn1cnc(S(=O)(=O)NCCOc2cccc(C3(Cc4ccccc4)CCN(CCF)C3)c2)c1 (stereo not shown) [Example 75]	≤ 100 nM
CN(Cc1cccc(C(CN)C2(c3ccc(Cl)cc3)CCC2)c1)S(=O)(=O)CCCF (stereo not shown) [Example 43, N-(3-{2-Amino-1-[1-(4-chlorophenyl)cyclobutyl]ethyl}benzyl)-3-fluoro-N-methylpropane-1-sulfonamide hydrochloride]	≤ 10000 nM
